Source: US20170107203A1, “HETEROCYCLIC INHIBITORS OF THE SODIUM CHANNEL” (EPIRUS BIOPHARMACEUTICALS, INC., priority 2014, published 2017)

Target: T1, human Nav1.7 (Homo sapiens, UniProt Q15858)
T1 construct: expressed in transfected cells
Assay: Assessment of Nav1.7 activity on PatchXpress (voltage dependence / slow inactivation parameters)
Format: cell-based
Settings: compound at 10 μM, relative to 0.2% DMSO vehicle control; for hNav1.7: Reduction in current at 20 mV (normalized data) Delta Ratio: before/after 30 sec conditioning pulse at 20 mV; for hNav1.7: Shift in voltage dependence of inactivation (mV) Delta Vhalf: PatchXpress
Procedure: The generation of a HEK 293F cell line stably expressing human Nav1.7/Navp1 was achieved by co-transfecting human SCN9A and human SCN1B cDNAs, subcloned into plasmid vectors, utilizing standard transfection techniques. Clones were selected using appropriate selection agents (0.3 mg/mL Zeocin and 0.8 mg/mL Geneticin) and maintained in Dulbecco's Modified Eagle medium, 10% fetal bovine serum, 1% non-essential amino acids to ˜80% confluence at 37° C. in a humidified incubator with 95% atmosphere and 5% CO2.
On the day of each experiment, cells that were grown to 80% confluence in a T75 flask were harvested for use on PatchXpress (Molecular Devices, CA, USA). Following a recovery period at 37° C. in a humidified incubator with 95% atmosphere and 5% CO2 in Dulbecco's Modified Eagle Medium, the media was replaced with an external recording solution containing (in mM): 90 TEACI, 50 NaCl, 1.8 CaCl2, 1 MgCl2, 10 HEPES, 10 glucose, adjusted to pH 7.4 with TEAOH and 300 mOsm with sucrose. The internal recording solution contained (in mM): 129 CsF, 2 MgCl2, 11 EGTA, 10 HEPES, 6 NaCl, 3 Na2ATP adjusted to pH 7.2 with CsOH and 280 mOsm with sucrose. The automated liquid handling facility of PatchXpress dispensed cells and added compound. Modulation of Nav1.7 channels by compounds was assessed by promoting the channels into the inactivated state using a conditioning voltage pulse of variable amplitude, followed by a brief hyperpolarizing pulse with a subsequent depolarized voltage step to measure the current amplitude in the presence and absence of compound. Compounds were assayed at 10 μM. Based upon this Patch express protocol, four electrophysiological parameters were measured relative to a 0.2% DMSO vehicle control (Table 2).

T1 sequence (Q15858 whole entry): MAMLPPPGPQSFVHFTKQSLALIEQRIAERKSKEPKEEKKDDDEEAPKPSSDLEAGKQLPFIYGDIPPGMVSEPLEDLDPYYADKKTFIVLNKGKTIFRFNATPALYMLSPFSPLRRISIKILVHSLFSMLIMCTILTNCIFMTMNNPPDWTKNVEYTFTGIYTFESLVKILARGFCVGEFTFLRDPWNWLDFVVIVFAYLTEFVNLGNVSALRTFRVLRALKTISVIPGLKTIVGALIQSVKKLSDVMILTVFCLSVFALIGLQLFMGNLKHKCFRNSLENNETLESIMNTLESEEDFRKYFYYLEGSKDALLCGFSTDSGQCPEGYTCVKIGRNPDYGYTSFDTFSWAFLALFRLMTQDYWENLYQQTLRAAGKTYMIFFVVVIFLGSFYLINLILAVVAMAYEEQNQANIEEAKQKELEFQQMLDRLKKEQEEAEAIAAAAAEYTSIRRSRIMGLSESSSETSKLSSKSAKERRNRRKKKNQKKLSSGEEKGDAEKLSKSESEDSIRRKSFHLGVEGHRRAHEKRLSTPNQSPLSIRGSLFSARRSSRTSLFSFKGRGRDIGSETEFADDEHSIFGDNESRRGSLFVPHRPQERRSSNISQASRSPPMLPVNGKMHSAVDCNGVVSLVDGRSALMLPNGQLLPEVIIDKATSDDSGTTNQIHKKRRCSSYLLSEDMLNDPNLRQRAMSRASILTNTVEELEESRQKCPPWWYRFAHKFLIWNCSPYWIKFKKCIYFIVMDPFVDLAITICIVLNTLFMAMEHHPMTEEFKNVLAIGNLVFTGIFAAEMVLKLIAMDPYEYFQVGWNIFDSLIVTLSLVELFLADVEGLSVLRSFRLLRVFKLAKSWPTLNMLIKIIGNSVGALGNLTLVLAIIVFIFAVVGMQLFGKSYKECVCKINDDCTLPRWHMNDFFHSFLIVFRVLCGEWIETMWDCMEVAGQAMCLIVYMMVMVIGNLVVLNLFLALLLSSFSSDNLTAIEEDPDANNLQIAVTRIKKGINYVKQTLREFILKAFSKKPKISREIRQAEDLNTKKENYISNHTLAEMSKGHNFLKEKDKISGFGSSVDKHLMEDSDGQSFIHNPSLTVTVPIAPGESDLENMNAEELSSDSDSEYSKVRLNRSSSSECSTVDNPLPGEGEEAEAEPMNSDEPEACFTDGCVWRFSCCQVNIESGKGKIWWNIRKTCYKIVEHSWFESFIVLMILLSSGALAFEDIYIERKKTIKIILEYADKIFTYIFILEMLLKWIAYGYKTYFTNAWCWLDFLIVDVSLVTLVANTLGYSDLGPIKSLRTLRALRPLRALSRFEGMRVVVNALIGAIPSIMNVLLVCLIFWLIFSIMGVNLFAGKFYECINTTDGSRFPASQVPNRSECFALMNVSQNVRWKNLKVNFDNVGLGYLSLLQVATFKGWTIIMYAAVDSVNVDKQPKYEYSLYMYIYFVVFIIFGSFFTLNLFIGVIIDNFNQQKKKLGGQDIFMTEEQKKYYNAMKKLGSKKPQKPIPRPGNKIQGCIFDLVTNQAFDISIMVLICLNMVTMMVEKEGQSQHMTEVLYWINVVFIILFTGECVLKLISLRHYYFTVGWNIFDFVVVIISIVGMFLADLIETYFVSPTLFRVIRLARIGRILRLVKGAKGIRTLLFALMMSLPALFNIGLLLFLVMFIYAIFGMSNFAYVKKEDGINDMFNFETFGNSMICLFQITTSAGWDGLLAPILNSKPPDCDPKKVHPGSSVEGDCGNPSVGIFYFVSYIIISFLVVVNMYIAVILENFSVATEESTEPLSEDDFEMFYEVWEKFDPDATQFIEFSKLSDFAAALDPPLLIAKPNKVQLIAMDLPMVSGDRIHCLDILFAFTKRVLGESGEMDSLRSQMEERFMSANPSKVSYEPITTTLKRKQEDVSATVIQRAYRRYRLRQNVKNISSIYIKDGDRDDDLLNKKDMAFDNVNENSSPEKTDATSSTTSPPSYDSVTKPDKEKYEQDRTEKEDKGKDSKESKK
T1 sequence (Q07699 19-218 partner): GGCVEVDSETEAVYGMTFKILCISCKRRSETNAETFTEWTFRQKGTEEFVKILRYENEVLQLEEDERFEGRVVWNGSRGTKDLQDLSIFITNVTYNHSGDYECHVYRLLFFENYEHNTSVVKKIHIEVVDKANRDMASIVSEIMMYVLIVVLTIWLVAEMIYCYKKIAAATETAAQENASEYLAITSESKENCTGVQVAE

Structure (SMILES) | hNav1.7: Reduction in current at 20 mV (normalized data) Delta Ratio | hNav1.7: Voltage dependence of activation (mV) VDEP [mV] | hNav1.7: Voltage dependence of fast inactivation (mV) VDEP [mV] | hNav1.7: Shift in voltage dependence of inactivation (mV) Delta Vhalf [mV]
CC12CC3CC(C)(C1)CC(NC(=O)[C@H]1CCCN1)(C3)C2 [Compound 43, (2R)-N-(3,5-dimethyladamantan-1-yl)pyrrolidine-2-carboxamide] | −0.12 | −11.40 | −5.70 | −8.50
O=C(NCCc1c[nH]c2ccc(F)cc12)[C@@H]1CCCN1 [Compound 48, (S)-N-(2-(5-fluoro-1H-indol-3-yl)ethyl)pyrrolidine-2-carboxamide] | −0.01 | −4.80 | −3.00 | −1.80
O=C(NCCOc1cc(F)cc(C(F)(F)F)c1)[C@H]1CCCN1 [Compound 20, (R)-N-(2-(3-fluoro-5-(trifluoromethyl)phenoxy)ethyl) pyrrolidine-2-carboxamide] | −0.01 | −6.80 | −4.40 | −7.20
CC(C)(c1nc2cc(C(F)(F)F)cc(C(F)(F)F)c2[nH]1)N1CCNCC1=O [Compound 60, 1-(2-(4,6-bis(trifluoromethyl)-1H-benzo[d]imidazol-2-yl)propan-2-yl)piperazin-2-one] | −0.19 | −8.3 | −3.8 | −9.2
COC[C@@H]1C(=O)N(Cc2cc(C(F)(F)F)cc(C(F)(F)F)c2)CCN1C(C)=O [Compound 92, (R)-4-acetyl-1-(3,5-bis(trifluoromethyl)benzyl)-3-(methoxymethyl)piperazin-2-one] | 0.01 | −7.1 | −3.9 | −2.2
O=C1CNCCN1CCCc1nc2cc(C(F)(F)F)cc(C(F)(F)F)c2[nH]1 [Compound 69] | −0.09 | −9.2 | −4.9 | −7.5
N[C@H](Cc1cccc(C(F)(F)F)c1)C(=O)NCc1nc2ccc(-c3ccc(F)c(Cl)c3)cc2[nH]1 [Compound 71, (R)-2-amino-N-((6-(3-chloro-4-fluorophenyl)-1H-benzo[d]imidazol-2-yl)methyl)-3-(3-(trifluoromethyl)phenyl)propanamide] | −0.07 | −10.5 | −6.3 | −8.5
CC(C)(CN1CCNCC1=O)c1nc2cc(F)cc(F)c2[nH]1 [Compound 70, 1-(2-(4,6-difluoro-1H-benzo[d]imidazol-2-yl)-2-methylpropyl)piperazin-2-one] | −0.08 | −5.3 | −5.7 | −4.6
CC(C)(CC(=O)N1CCNCC1)c1nc2cc(F)cc(F)c2[nH]1 [Compound 67, 3-(4,6-difluoro-1H-benzo[d]imidazol-2-yl)-3-methyl-1-(piperazin-1-yl)butan-1-one] | −0.13 | −9.7 | −7.6 | −7.8
O=C1CNCCN1Cc1cc(C(F)(F)F)cc(C(F)(F)F)c1 [Compound 91, 1-(3,5-bis(trifluoromethyl)benzyl)piperazin-2-one] | 0.01 | −5 | −4.1 | −3.1
Cc1cccc(C)c1OCC(C)NC(=O)[C@H](N)C(C)C (stereo partly drawn) [Compound 12, (2R)-2-amino-N-(1-(2,6-dimethylphenoxy)propan-2-yl)-3-methylbutanamide] | −0.19 | −7.30 | −4.30 | −25.70
COC[C@@H](NC(C)=O)C(=O)NCc1cc(C(F)(F)F)cc(C(F)(F)F)c1 [Compound 79, (R)-2-acetamido-N-(3,5-bis(trifluoromethyl)benzyl)-3-methoxypropanamide] | −0.04 | −15.2 | −7.9 | −5.8
O=C(NC[C@H]1CCCN1)Nc1cc(C(F)(F)F)cc(C(F)(F)F)c1 [Compound 49, (R)-1-(3,5-bis(trifluoromethyl)phenyl)-3-(pyrrolidin-2-ylmethyl)urea] | −0.18 | −10.20 | −7.80 | −6.40
O=C(CCc1nc2cc(F)cc(F)c2[nH]1)N1CCNCC1 [Compound 66, 3-(4,6-difluoro-1H-benzo[d]imidazol-2-yl)-1-(piperazin-1-yl)propan-1-one] | −0.14 | −14.5 | −6.9 | −12.0
O=C(NCCOc1cc(C(F)(F)F)cc(C(F)(F)F)c1)[C@H]1CCCN1 [Compound 11, (R)-N-(2-(3,5-bis(trifluoromethyl)phenoxy)ethyl) pyrrolidine-2-carboxamide] | −0.20 | −5.00 | −3.90 | −19.70
CC12CC3CC(C)(C1)CC(NC(=O)CCN)(C3)C2 [Compound 46, 3-amino-N-(3,5-dimethyladamantan-1-yl)propanamide] | −0.04 | −7.90 | −4.50 | −1.70
